Data: patent publication EP4596574A1, “GLP-1/GCG/GIP TRIPLE-RECEPTOR AGONIST AND USE THEREOF” (Sunshine Lake Pharma Co., Ltd., priority 2022, dated 2024)
pEC50: −log10 of the molar value.

Experiments:
Assay type in all cases: cell-based
GLP-1R = molecular target: T1, GLP-1R (Homo sapiens, UniProt P43220); test: In vitro cell activity, cAMP production in HEK293 cells expressing GLP-1R; settings: HEK293-GLP-1R cells, cAMP; read-out: GLP-1R (EC50)
T1 construct: expressed in transfected cells; host or cells: HEK293 (HEK293-GLP-1R)
Procedure: (§1) After they were completely thawed within 1.5 minutes, the cells were added dropwise into a 15 mL centrifuge tube containing 8 mL of warm culture medium in a clean bench. The tubes were centrifuged at 900 rpm for 5 minutes, the supernatant was discarded, and the cells were resuspended in 1 mL of complete culture medium (by pipetting 15 times). 20 µL of the suspension was immediately taken and mixed with an equal volume of trypan blue. 20 µL was taken to count the number of live cells, and the cells were diluted to 4×10^5 cells/mL with complete culture medium. • 4) The 384-well plate was divided into GLP-1R cell, GCGR cell and GIPR cell areas. The cell suspension was added to the wells of the corresponding area at 5 µL per well using a 12-channel variable-channel adjustable dispenser. […] Then, the diluted cAMP-d2 working solution and anti-cAMP-crytate working solution were mixed evenly in a ratio of 1:1, and 10 µL was added to each well of the sample group. The wells were covered with white lids and placed at room temperature in the dark for 1 hour or at 4 °C overnight. • 6) The fluorescence values at 665 nm and 620 nm were detected in a multifunctional microplate reader. In GraphPad Prism 6, the signal ratio and sample concentration were nonlinearly fitted using a four-parameter equation to obtain the EC50 value.

GIPR = molecular target: T2, GIPR (Homo sapiens, UniProt P48546); test: In vitro cell activity, cAMP production in HEK293 cells expressing GIPR; settings: HEK293-GIPR cells, cAMP; read-out: GIPR (EC50)
T2 construct: expressed in transfected cells; host or cells: HEK293 (HEK293-GIPR)
T2 sequence (P48546 22-466): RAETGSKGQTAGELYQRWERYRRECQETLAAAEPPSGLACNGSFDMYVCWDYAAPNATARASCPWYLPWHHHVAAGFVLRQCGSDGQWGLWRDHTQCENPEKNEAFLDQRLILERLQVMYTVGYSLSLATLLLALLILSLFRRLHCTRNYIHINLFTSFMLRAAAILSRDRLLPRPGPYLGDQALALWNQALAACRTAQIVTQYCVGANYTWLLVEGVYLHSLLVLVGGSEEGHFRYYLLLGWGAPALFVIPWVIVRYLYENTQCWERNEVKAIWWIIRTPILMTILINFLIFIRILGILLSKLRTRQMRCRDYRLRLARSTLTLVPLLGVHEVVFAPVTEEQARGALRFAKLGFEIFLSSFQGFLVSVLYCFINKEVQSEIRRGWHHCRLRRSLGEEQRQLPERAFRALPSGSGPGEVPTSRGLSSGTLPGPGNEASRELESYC
Procedure: as §1, with “The wells were covered with white lids and placed at room temperature in the dark for 1 hour or at 4 °C overnight. • 6) The fluorescence values at 665 nm and 620 nm were detected in a multifunctional microplate reader.” left out

GCGR = molecular target: T3, GCGR (Homo sapiens, UniProt P47871); test: In vitro cell activity, cAMP production in HEK293 cells expressing GCGR; settings: HEK293-GCGR cells, cAMP; read-out: GCGR (EC50)
T3 construct: expressed in transfected cells; host or cells: HEK293 (HEK293-GCGR)
Procedure: as §1

T3 sequence (P47871 26-477, species assumed): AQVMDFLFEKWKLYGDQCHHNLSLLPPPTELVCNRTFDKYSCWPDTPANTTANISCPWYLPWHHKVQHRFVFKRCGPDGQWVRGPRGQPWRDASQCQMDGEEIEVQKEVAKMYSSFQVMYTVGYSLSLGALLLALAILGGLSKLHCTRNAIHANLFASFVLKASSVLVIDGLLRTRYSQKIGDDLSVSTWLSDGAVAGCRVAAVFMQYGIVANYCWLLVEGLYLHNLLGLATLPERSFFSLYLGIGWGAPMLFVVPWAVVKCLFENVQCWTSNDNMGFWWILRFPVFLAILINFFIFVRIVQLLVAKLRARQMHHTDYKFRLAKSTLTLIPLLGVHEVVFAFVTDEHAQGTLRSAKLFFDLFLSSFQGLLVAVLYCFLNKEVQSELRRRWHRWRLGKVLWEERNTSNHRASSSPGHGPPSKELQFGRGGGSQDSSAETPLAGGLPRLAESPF
T1 sequence (P43220 24-463, species assumed): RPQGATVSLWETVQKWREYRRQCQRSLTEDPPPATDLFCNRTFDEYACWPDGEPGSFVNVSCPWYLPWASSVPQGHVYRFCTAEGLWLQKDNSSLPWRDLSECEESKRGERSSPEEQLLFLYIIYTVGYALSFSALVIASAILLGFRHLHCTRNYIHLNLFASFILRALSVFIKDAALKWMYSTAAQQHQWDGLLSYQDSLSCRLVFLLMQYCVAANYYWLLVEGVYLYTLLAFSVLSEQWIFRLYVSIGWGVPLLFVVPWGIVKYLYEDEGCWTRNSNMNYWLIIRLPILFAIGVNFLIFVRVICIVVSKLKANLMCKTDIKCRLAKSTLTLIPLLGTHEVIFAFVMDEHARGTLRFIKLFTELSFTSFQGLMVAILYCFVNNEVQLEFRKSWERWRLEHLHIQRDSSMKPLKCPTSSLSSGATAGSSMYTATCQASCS

Compound `CC[C@H](C)[C@H](NC(=O)[C@H](Cc1ccccc1)NC(=O)[C@H](C)NC(=O)[C@H](CCCNC(=N)N)NC(=O)[C@H](CCC(N)=O)NC(=O)[C@H](C)NC(=O)[C@H](CCCCNC(=O)COCCOCCNC(=O)CC[C@H](NC(=O)CCCCCCCCCCCCCCCCCCC(=O)O)C(=O)O)NC(=O)[C@H](CCC(=O)O)NC(=O)[C@H](CC(=O)O)NC(=O)[C@H](CC(C)C)NC(=O)[C@H](CC(C)C)NC(=O)[C@@H](NC(=O)[C@H](CO)NC(=O)[C@H](Cc1ccc(O)cc1)NC(=O)[C@H](CC(=O)O)NC(=O)[C@H](CO)NC(=O)[C@@H](NC(=O)[C@](C)(Cc1ccccc1F)NC(=O)[C@@H](NC(=O)CNC(=O)[C@H](Cc1c[nH]cn1)NC(=O)C(C)(C)NC(=O)[C@@H](N)Cc1ccc(O)cc1)[C@@H](C)O)[C@@H](C)O)[C@@H](C)CC)C(=O)N[C@@H](CCC(=O)O)C(=O)N[C@@H](Cc1ccc(O)cc1)C(=O)N[C@@H](CC(C)C)C(=O)N[C@@H](CC(C)C)C(=O)N[C@@H](C)C(=O)NCC(=O)NCC(=O)N1CCC[C@H]1C(=O)N[C@@H](CO)C(=O)N[C@@H](CO)C(=O)NCC(=O)N[C@@H](C)C(=O)N1CCC[C@H]1C(=O)N1CCC[C@H]1C(=O)N1CCC[C@H]1C(=O)N[C@@H](CO)C(=O)O` [HEC-PT83] has a pEC50 (GLP-1R) of 9.59, a pEC50 (GIPR) of 9.80 and a pEC50 (GCGR) of 9.51.
Work on `CC[C@H](C)[C@H](NC(=O)[C@H](Cc1ccccc1)NC(=O)[C@H](C)NC(=O)[C@H](CCCNC(=N)N)NC(=O)[C@H](CCC(N)=O)NC(=O)[C@H](C)NC(=O)[C@H](CCCCNC(=O)COCCOCCNC(=O)CC[C@H](NC(=O)CCCCCCCCCCCCCCCCCCC(=O)O)C(=O)O)NC(=O)[C@H](CCC(=O)O)NC(=O)[C@H](CC(=O)O)NC(=O)[C@H](CC(C)C)NC(=O)[C@H](CC(C)C)NC(=O)[C@@H](NC(=O)[C@H](CO)NC(=O)[C@H](Cc1ccc(O)cc1)NC(=O)[C@H](CC(=O)O)NC(=O)[C@H](CO)NC(=O)[C@@H](NC(=O)[C@](C)(Cc1ccccc1F)NC(=O)[C@@H](NC(=O)CNC(=O)[C@H](Cc1c[nH]cn1)NC(=O)C(C)(C)NC(=O)[C@@H](N)Cc1ccc(O)cc1)[C@@H](C)O)[C@@H](C)O)[C@@H](C)CC)C(=O)N[C@@H](CCC(=O)O)C(=O)N[C@@H](Cc1ccc(O)cc1)C(=O)N[C@@H](CC(C)C)C(=O)N[C@@H](CC(C)C)C(=O)N[C@@H](CCC(=O)O)C(=O)NCC(=O)NCC(=O)N1CCC[C@H]1C(=O)N[C@@H](CO)C(=O)N[C@@H](CO)C(=O)NCC(=O)N[C@@H](C)C(=O)N1CCC[C@H]1C(=O)N1CCC[C@H]1C(=O)N1CCC[C@H]1C(=O)N[C@@H](CO)C(=O)O` [HEC-PT84] yielded a pEC50 (GLP-1R) of 9.54, a pEC50 (GIPR) of 9.63 and a pEC50 (GCGR) of 9.51.
`CC[C@H](C)[C@H](NC(=O)[C@H](Cc1ccccc1)NC(=O)[C@H](C)NC(=O)[C@H](CCCNC(=N)N)NC(=O)[C@H](C)NC(=O)[C@H](CCCNC(=N)N)NC(=O)[C@H](CCCCNC(=O)COCCOCCNC(=O)CC[C@H](NC(=O)CCCCCCCCCCCCCCCCCCC(=O)O)C(=O)O)NC(=O)[C@H](CCC(=O)O)NC(=O)[C@H](CC(=O)O)NC(=O)[C@H](CC(C)C)NC(=O)[C@H](CC(C)C)NC(=O)[C@@H](NC(=O)[C@H](CO)NC(=O)[C@H](Cc1ccc(O)cc1)NC(=O)[C@H](CC(=O)O)NC(=O)[C@H](CO)NC(=O)[C@@H](NC(=O)[C@](C)(Cc1ccccc1F)NC(=O)[C@@H](NC(=O)CNC(=O)[C@H](CCC(N)=O)NC(=O)C(C)(C)NC(=O)[C@@H](N)Cc1ccc(O)cc1)[C@@H](C)O)[C@@H](C)O)[C@@H](C)CC)C(=O)N[C@@H](CCC(=O)O)C(=O)N[C@@H](Cc1ccc(O)cc1)C(=O)N[C@@H](CC(C)C)C(=O)N[C@@H](CC(C)C)C(=O)N[C@@H](C)C(=O)NCC(=O)NCC(=O)N1CCC[C@H]1C(=O)N[C@@H](CO)C(=O)N[C@@H](CO)C(=O)NCC(=O)N[C@@H](C)C(=O)N1CCC[C@H]1C(=O)N1CCC[C@H]1C(=O)N1CCC[C@H]1C(=O)N[C@@H](CO)C(=O)O` [HEC-PT88] gave a pEC50 (GLP-1R) of 9.88, a pEC50 (GIPR) of 9.31 and a pEC50 (GCGR) of 10.46.
`CC[C@H](C)[C@H](NC(=O)[C@H](Cc1ccccc1)NC(=O)[C@H](CCC(=O)O)NC(=O)[C@H](CCCNC(=N)N)NC(=O)[C@H](C)NC(=O)[C@H](CCCNC(=N)N)NC(=O)[C@H](CCCCNC(=O)COCCOCCNC(=O)CC[C@H](NC(=O)CCCCCCCCCCCCCCCCCCC(=O)O)C(=O)O)NC(=O)[C@H](CCC(=O)O)NC(=O)[C@H](CC(=O)O)NC(=O)[C@H](CC(C)C)NC(=O)[C@H](CC(C)C)NC(=O)[C@@H](NC(=O)[C@H](CO)NC(=O)[C@H](Cc1ccc(O)cc1)NC(=O)[C@H](CC(=O)O)NC(=O)[C@H](CO)NC(=O)[C@@H](NC(=O)[C@](C)(Cc1ccccc1F)NC(=O)[C@@H](NC(=O)CNC(=O)[C@H](Cc1c[nH]cn1)NC(=O)C(C)(C)NC(=O)[C@@H](N)Cc1ccc(O)cc1)[C@@H](C)O)[C@@H](C)O)[C@@H](C)CC)C(=O)N[C@@H](CCC(=O)O)C(=O)N[C@@H](Cc1c[nH]c2ccccc12)C(=O)N[C@@H](CC(C)C)C(=O)N[C@@H](CC(C)C)C(=O)N[C@@H](CCC(=O)O)C(=O)NCC(=O)NCC(=O)N1CCC[C@H]1C(=O)N[C@@H](CO)C(=O)N[C@@H](CO)C(=O)NCC(=O)N[C@@H](C)C(=O)N1CCC[C@H]1C(=O)N1CCC[C@H]1C(=O)N1CCC[C@H]1C(=O)N[C@@H](CO)C(=O)O` [HEC-PT89] showed a pEC50 (GLP-1R) of 9.76, a pEC50 (GIPR) of 9.67 and a pEC50 (GCGR) of 10.38.
Compound `CC[C@H](C)[C@H](NC(=O)[C@H](Cc1ccccc1)NC(=O)[C@H](CCC(=O)O)NC(=O)[C@H](CCC(N)=O)NC(=O)[C@H](CCC(N)=O)NC(=O)[C@H](C)NC(=O)[C@H](CCCCNC(=O)COCCOCCNC(=O)CC[C@H](NC(=O)CCCCCCCCCCCCCCCCCCC(=O)O)C(=O)O)NC(=O)[C@H](CCC(=O)O)NC(=O)[C@H](CC(=O)O)NC(=O)[C@H](CC(C)C)NC(=O)[C@H](CC(C)C)NC(=O)[C@@H](NC(=O)[C@H](CO)NC(=O)[C@H](Cc1ccc(O)cc1)NC(=O)[C@H](CC(=O)O)NC(=O)[C@H](CO)NC(=O)[C@@H](NC(=O)[C@](C)(Cc1ccccc1F)NC(=O)[C@@H](NC(=O)CNC(=O)[C@H](CCC(N)=O)NC(=O)C(C)(C)NC(=O)[C@@H](N)Cc1ccc(O)cc1)[C@@H](C)O)[C@@H](C)O)[C@@H](C)CC)C(=O)N[C@@H](CCC(=O)O)C(=O)N[C@@H](Cc1c[nH]c2ccccc12)C(=O)N[C@@H](CC(C)C)C(=O)N[C@@H](CC(C)C)C(=O)N[C@@H](C)C(=O)NCC(=O)NCC(=O)N1CCC[C@H]1C(=O)N[C@@H](CO)C(=O)N[C@@H](CO)C(=O)NCC(=O)N[C@@H](C)C(=O)N1CCC[C@H]1C(=O)N1CCC[C@H]1C(=O)N1CCC[C@H]1C(=O)N[C@@H](CO)C(=O)O` [HEC-PT90] has a pEC50 (GLP-1R) of 9.50, a pEC50 (GIPR) of 9.73 and a pEC50 (GCGR) of 8.15.
`CC[C@H](C)[C@H](NC(=O)[C@H](CC(C)C)NC(=O)[C@H](Cc1c[nH]c2ccccc12)NC(=O)[C@H](CCC(N)=O)NC(=O)[C@@H](NC(=O)[C@H](Cc1ccccc1)NC(=O)[C@H](C)NC(=O)[C@H](CCC(N)=O)NC(=O)[C@H](CCC(N)=O)NC(=O)[C@H](C)NC(=O)[C@H](CCCCNC(=O)COCCOCCNC(=O)CC[C@H](NC(=O)CCCCCCCCCCCCCCCCCCC(=O)O)C(=O)O)NC(=O)[C@H](CCC(=O)O)NC(=O)[C@H](CC(=O)O)NC(=O)[C@H](CC(C)C)NC(=O)[C@H](CC(C)C)NC(=O)[C@@H](NC(=O)[C@H](CO)NC(=O)[C@H](Cc1ccc(O)cc1)NC(=O)[C@H](CC(=O)O)NC(=O)[C@H](CO)NC(=O)[C@@H](NC(=O)[C@](C)(Cc1ccccc1F)NC(=O)[C@@H](NC(=O)CNC(=O)[C@H](CCC(N)=O)NC(=O)C(C)(C)NC(=O)[C@@H](N)Cc1ccc(O)cc1)[C@@H](C)O)[C@@H](C)O)[C@@H](C)CC)C(C)C)C(=O)N[C@@H](C)C(=O)NCC(=O)NCC(=O)N1CCC[C@H]1C(=O)N[C@@H](CO)C(=O)N[C@@H](CO)C(=O)NCC(=O)N[C@@H](C)C(=O)N1CCC[C@H]1C(=O)N1CCC[C@H]1C(=O)N1CCC[C@H]1C(=O)N[C@@H](CO)C(=O)O` [HEC-PT92] was tested, and the pEC50 (GLP-1R) was 9.98, the pEC50 (GIPR) was 10.11 and the pEC50 (GCGR) was 8.73.
